Measurements published in PMC2559975 (Journal of medicinal chemistry, 2008).
Where two headings read alike, the source gives them in different places. Values belong to the compound of their own block, whether it stands above or below them.

Tests used:
[1] = test system: CCRF-CEM human leukemia cell line; test: In vitro cytotoxic activity; format: cell-based; details: for Times less potent than 2 in the CCRF-CEM assay: relative to 2
[2] = test system: CCRF-CEM human leukemia cell line; details: read-out: IC50, CCRF-CEM; equi-mixture of C10-diastereomers; cited from earlier work
CCRF-CEM/FPGS^- = format: cell-based, human; details: relative to CCRF-CEM
rhGAR Tfase = molecular target: T1, rhGAR Tfase (Homo sapiens, UniProt P22102); test: GAR Tfase enzyme inhibition assay; format: biochemical
T1 sequence (P22102 808-1010 limits assumed): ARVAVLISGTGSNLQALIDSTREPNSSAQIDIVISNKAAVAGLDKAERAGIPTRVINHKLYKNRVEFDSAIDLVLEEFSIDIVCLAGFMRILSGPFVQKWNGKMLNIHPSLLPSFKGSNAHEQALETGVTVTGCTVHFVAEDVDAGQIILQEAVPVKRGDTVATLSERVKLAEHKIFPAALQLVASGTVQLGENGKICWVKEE

[3] = Homo sapiens, CCRF-CEM, read-out: IC50 [(-)T, (-)H] CCRF-CEM

Compound: 10-hydroxy-DDACTHF [Compound 10R-7]
- IC50 ([1]; read-out: CCRF-CEM IC50, (+) T, (-) H, Table 2, thymidine added, no hypoxanthine): 5700 nM
- IC50 ([1]; read-out: CCRF-CEM IC50, (-) T, (+) H, Table 2, hypoxanthine added, no thymidine): > 10000 nM

Compound: Nc1nc(N)c(CCCC(C(=O)C(F)(F)F)c2ccc(C(=O)N[C@@H](CCC(=O)O)C(=O)O)cc2)c(=O)[nH]1 (some centres unmarked) [Compound 2, 10-CF3CO-DDACTHF, reference compound]
- IC50 [1, 3]: 60 nM

Compound: CSC(CCCc1c(N)nc(N)[nH]c1=O)c1ccc(C(=O)N[C@@H](CCC(=O)O)C(=O)O)cc1 (some centres unmarked) [Compound 3, 10-methylthio-DDACTHF]
- IC50 [2]: 100 nM
- Loss of activity against the cell line that lacks FPGS (CCRF-CEM/FPGS^-): ca. 100 fold

Compound: Nc1nc(N)c(CCCC2(c3ccc(C(=O)N[C@@H](CCC(=O)O)C(=O)O)cc3)SCCCS2)c(=O)[nH]1 [Compound 9, (S)-2-(4-(2-(3-(2,4-Diamino-6-oxo-1,6-dihydropyrimidin-5-yl)propyl)-1,3-dithian-2-yl)benzamido)pentanedioic Acid]
- Activity in the CCRF-CEM cell-based assay (in words) [1]: no activity

Compound: CS[C@H](CCCc1c(N)nc(N)[nH]c1=O)c1ccc(C(=O)N[C@@H](CCC(=O)O)C(=O)O)cc1 [Compound 10R-3, (S)-2-(4-((R)-4-(2,4-Diamino-6-oxo-1,6-dihydropyrimidin-5-yl)-1-(methylthio)butyl)benzamido)pentanedioic Acid]
- IC50 [1, 3]: 90 nM
- Times less potent than 2 in the CCRF-CEM assay [1]: 3-5 times

Compound: CS[C@@H](CCCc1c(N)nc(N)[nH]c1=O)c1ccc(C(=O)N[C@@H](CCC(=O)O)C(=O)O)cc1 [Compound 10S-3, 10-methylthio-DDACTHF]
- Times less potent than 2 in the CCRF-CEM assay [1]: 3-5 times

- Ki (rhGAR Tfase): 1210 nM
Compound: Nc1nc(N)c(CCC[C@H](O)c2ccc(C(=O)N[C@@H](CCC(=O)O)C(=O)O)cc2)c(=O)[nH]1 [Compound 10S-7, (S)-2-(4-((S)-4-(2,4-Diamino-6-oxo-1,6-dihydropyrimidin-5-yl)-1-hydroxybutyl)benzamido)pentanedioic Acid]

Compound: CO[C@@H](CCCc1c(N)nc(N)[nH]c1=O)c1ccc(C(=O)N[C@@H](CCC(=O)O)C(=O)O)cc1 [Compound 10S-8, (S)-2-(4-((S)-4-(2,4-Diamino-6-oxo-1,6-dihydropyrimidin-5-yl)-1-methoxybutyl)benzamido)pentanedioic Acid]
- IC50 [1, 3]: 800 nM
